Data on 19 compounds can be found in patent US9567302B2, “Carbamate compounds and of making and using same” (Abide Therapeutics, Inc., priority 2012, dated 2017).

Common to all, as to format: biochemical
Design in all cases: from tissue

One assay addresses T1, FAAH (Mus musculus, UniProt O08914).
T1 sequence (O08914 1-579): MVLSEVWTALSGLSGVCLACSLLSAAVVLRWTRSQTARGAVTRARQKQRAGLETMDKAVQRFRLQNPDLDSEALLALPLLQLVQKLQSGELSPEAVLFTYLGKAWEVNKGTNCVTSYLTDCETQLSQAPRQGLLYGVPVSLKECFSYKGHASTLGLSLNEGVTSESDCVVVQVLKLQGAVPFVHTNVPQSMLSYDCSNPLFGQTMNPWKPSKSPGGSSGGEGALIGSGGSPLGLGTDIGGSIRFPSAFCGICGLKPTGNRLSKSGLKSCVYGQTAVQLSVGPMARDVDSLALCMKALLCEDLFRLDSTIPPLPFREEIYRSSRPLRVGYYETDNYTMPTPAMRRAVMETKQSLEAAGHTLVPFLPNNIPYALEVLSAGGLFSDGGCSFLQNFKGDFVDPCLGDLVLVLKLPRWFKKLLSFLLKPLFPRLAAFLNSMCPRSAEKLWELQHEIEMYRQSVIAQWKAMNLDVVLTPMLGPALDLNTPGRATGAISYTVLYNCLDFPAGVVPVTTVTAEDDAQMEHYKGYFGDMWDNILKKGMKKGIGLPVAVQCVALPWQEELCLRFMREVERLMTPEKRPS
Put plainly: In vitro competitive ABPP, % inhibition at fixed concentration, FAAH. Here is the method:
(§1) In Vitro Competitive Activity-Based Protein Profiling.
(§2) Proteomes (mouse brain membrane fraction or cell lysates) (50 μL, 1.0 mg/ml total protein concentration) were preincubated with varying concentrations of inhibitors at 37° C. After 30 min, FP-Rh (1.0 μL, 50 μM in DMSO) was added and the mixture was incubated for another 30 min at 37° C. Reactions were quenched with SDS loading buffer (50 μL—4×) and run on SDS-PAGE. Following gel imaging, serine hydrolase activity was determined by measuring fluorescent intensity of gel bands corresponding to MAGL, ABHD6 and FAAH using ImageJ 1.43u software.

The target of a further assay is T2, ABHD6 (Mus musculus, UniProt Q8R2Y0).
T2 sequence (Q8R2Y0 1-336): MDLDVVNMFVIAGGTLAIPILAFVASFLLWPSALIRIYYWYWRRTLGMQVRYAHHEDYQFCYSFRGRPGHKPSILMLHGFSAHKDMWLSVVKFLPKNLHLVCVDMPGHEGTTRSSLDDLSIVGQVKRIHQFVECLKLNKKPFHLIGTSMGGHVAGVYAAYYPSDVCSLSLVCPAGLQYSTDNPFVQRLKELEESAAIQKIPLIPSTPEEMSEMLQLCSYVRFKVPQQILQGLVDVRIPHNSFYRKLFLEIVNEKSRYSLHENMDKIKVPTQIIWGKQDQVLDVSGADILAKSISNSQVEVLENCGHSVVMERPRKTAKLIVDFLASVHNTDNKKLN
Put plainly: In vitro competitive ABPP, % inhibition at fixed concentration, ABHD6. Here is the method:
as §1, §2

The next assay has as its target T3, MAGL (Mus musculus, UniProt O35678).
T3 sequence (O35678 1-303): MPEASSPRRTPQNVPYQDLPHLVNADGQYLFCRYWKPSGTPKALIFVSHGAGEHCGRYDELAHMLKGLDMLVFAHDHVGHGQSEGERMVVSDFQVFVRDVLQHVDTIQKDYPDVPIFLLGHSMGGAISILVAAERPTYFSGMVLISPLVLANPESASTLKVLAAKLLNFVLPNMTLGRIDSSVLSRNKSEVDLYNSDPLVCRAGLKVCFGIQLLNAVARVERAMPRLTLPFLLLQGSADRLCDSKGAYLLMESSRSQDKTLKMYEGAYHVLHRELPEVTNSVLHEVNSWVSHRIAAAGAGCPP
Put plainly: In vitro competitive ABPP, % inhibition at fixed concentration, MAGL. Here is the method: as §1, §2

A word on the inhibition: it is how much of the control response was suppressed. Lower therefore signals little suppression. Consider `CC1(C)CN(Cc2ccc(N3CCOCC3)cc2C(F)(F)F)CCN1C(=O)ON1C(=O)CCC1=O` [Example 86, 2,5-Dioxopyrrolidin-1-yl 2,2-dimethyl-4-{[4-(morpholin-4-yl)-2-(trifluoromethyl)phenyl]methyl}piperazine-1-carboxylate], for which the inhibition at 1 µM at FAAH, on ABHD6 and on MAGL was below 25% throughout.

In the case of `CC1(C)CN(Cc2ccc(N3CCOCC3)cc2OC(F)(F)F)CCN1C(=O)ON1C(=O)CCC1=O` [Example 87, 2,5-Dioxopyrrolidin-1-yl 2,2-dimethyl-4-{[4-(morpholin-4-yl)-2-(trifluoromethoxy)phenyl]methyl}piperazine-1-carboxylate], the inhibition at 1 µM on FAAH, at ABHD6 and at MAGL was below 25% in each case.

In the case of `C[C@H]1CN(Cc2ccc(N3CCOCC3)cc2F)CCN1C(=O)ON1C(=O)CCC1=O` [Example 88, 2,5-Dioxopyrrolidin-1-yl (2S)-4-{[2-fluoro-4-(morpholin-4-yl)phenyl]methyl}-2-methylpiperazine-1-carboxylate], the values for the inhibition at 1 µM at FAAH, on ABHD6 and at MAGL were below 25%, 25 to 75% and 25 to 75%, respectively.

Turning to `C[C@H]1CN(Cc2ccc(N3CCOCC3)cc2Cl)CCN1C(=O)ON1C(=O)CCC1=O` [Example 89, 2,5-Dioxopyrrolidin-1-yl (2S)-4-{[2-chloro-4-(morpholin-4-yl)phenyl]methyl}-2-methylpiperazine-1-carboxylate], the results for the inhibition at 1 µM on FAAH, on ABHD6 and on MAGL were below 25%, 25 to 75% and 25 to 75%, respectively.

Turning to `C[C@H]1CN(Cc2ccc(N3CCOCC3)cc2OC(F)(F)F)CCN1C(=O)ON1C(=O)CCC1=O` [Example 90, 2,5-Dioxopyrrolidin-1-yl (2S)-2-methyl-4-{[4-(morpholin-4-yl)-2-(trifluoromethoxy)phenyl]methyl}piperazine-1-carboxylate], the inhibition at 1 µM on FAAH was below 25%; at ABHD6, 25 to 75%; at MAGL it was 25 to 75%.

Take `C[C@@H]1CN(Cc2ccc(N3CCOCC3)cc2Cl)CCN1C(=O)ON1C(=O)CCC1=O` [Example 96, 2,5-Dioxopyrrolidin-1-yl (2R)-4-{[2-chloro-4-(morpholin-4-yl)phenyl]methyl}-2-methylpiperazine-1-carboxylate]: the inhibition at 1 µM at FAAH, at ABHD6 and on MAGL was below 25% each time.

As for `O=C(ON1C(=O)CCC1=O)N1CCN(Cc2ccc(N3CCCC3)cc2)CC1` [Example 99, 2,5-Dioxopyrrolidin-1-yl 4-(4-(pyrrolidin-1-yl)benzyl)piperazine-1-carboxylate], the values for the inhibition at 1 µM on FAAH, on ABHD6 and on MAGL were below 25%, 25 to 75% and 25 to 75%, respectively.

In the case of `O=C(ON1C(=O)CCC1=O)N1CCN(Cc2ccc(N3CCOCC3)cc2)CC1` [Example 100, 2,5-Dioxopyrrolidin-1-yl 4-(4-morpholinobenzyl)piperazine-1-carboxylate], the inhibition at 1 µM at FAAH, at ABHD6 and on MAGL was below 25% each time.

Regarding `O=C(ON1C(=O)CCC1=O)N1CCN(Cc2ccc(N3CCOCC3)cc2OC(F)(F)F)CC1` [Example 102, 2,5-Dioxopyrrolidin-1-yl 4-{[4-(morpholin-4-yl)-2-(trifluoromethoxy)phenyl]methyl}piperazine-1-carboxylate], the inhibition at 1 µM on FAAH was below 25%; on ABHD6 it was 25 to 75%; at MAGL, above 75%.

For `C[C@@H]1CN(Cc2ccc(N3CCOCC3)cc2OC(F)(F)F)CCN1C(=O)ON1C(=O)CCC1=O` [Example 103, 2,5-Dioxopyrrolidin-1-yl (2R)-2-methyl-4-{[4-(morpholin-4-yl)-2-(trifluoromethoxy)phenyl]methyl}piperazine-1-carboxylate], the inhibition at 1 µM at FAAH, on ABHD6 and at MAGL was below 25% each time.

`CS(=O)(=O)N1CCN(c2cc(Cl)ccc2CN2CCN(C(=O)ON3C(=O)CCC3=O)CC2)CC1` [Example 110, 2,5-Dioxopyrrolidin-1-yl 4-{[4-chloro-2-(4-methanesulfonylpiperazin-1-yl)phenyl]methyl}piperazine-1-carboxylate]: the results for the inhibition at 1 µM at FAAH, at ABHD6 and on MAGL were below 25%, 25 to 75% and 25 to 75%, respectively.

As for `O=C(ON1C(=O)CCC1=O)N1CCN(Cc2ccc(Cl)cc2N2CCC3(CCNC3=O)CC2)CC1` [Example 111, 2,5-Dioxopyrrolidin-1-yl 4-[(4-chloro-2-{1-oxo-2,8-diazaspiro[4.51]decan-8-yl}phenyl)methyl]piperazine-1-carboxylate], the inhibition at 1 µM on FAAH is below 25%; on ABHD6, 25 to 75%; on MAGL, 25 to 75%.

As to `O=C(ON1C(=O)CCC1=O)N1CCN(Cc2ccc(Cl)cc2N2CCC2)CC1` [Example 112, 2,5-Dioxopyrrolidin-1-yl 4-{[2-(azetidin-1-yl)-4-chlorophenyl]methyl}piperazine-1-carboxylate], the inhibition at 1 µM was below 25% at FAAH, 25 to 75% at ABHD6 and above 75% on MAGL.

As to `Cc1cc(-c2ccc(CN3CCN(C(=O)ON4C(=O)CCC4=O)CC3)c(C)c2)cc(C)n1` [Example 113, 2,5-Dioxopyrrolidin-1-yl 4-{[4-(2,6-dimethylpyridin-4-yl)-2-methylphenyl]methyl}piperazine-1-carboxylate], the inhibition at 1 µM is below 25% on FAAH, 25 to 75% on ABHD6 and 25 to 75% on MAGL.

As to `O=C(ON1C(=O)CCC1=O)N1CCN(Cc2ccc(Cl)cc2N2CCC(C(=O)N3CCCC3)CC2)CC1` [Example 116, 2,5-Dioxopyrrolidin-1-yl 4-({4-chloro-2-[4-(pyrrolidine-1-carbonyl)piperidin-1-yl]phenyl}methyl)piperazine-1-carboxylate], the figures for the inhibition at 1 µM on FAAH, at ABHD6 and at MAGL were below 25%, below 25% and 25 to 75%, respectively.

`O=C(ON1C(=O)CCC1=O)N1CCN(Cc2ccc(Cl)cc2N2CCn3ncnc3C2)CC1` [Example 117, 2,5-Dioxopyrrolidin-1-yl 4-[(4-chloro-2-{5H,6H,7H,8H-[1,2,4]triazolo[1,5-a]pyrazin-7-yl}phenyl)methyl]piperazine-1-carboxylate]: the inhibition at 1 µM was below 25% on FAAH, below 25% on ABHD6 and 25 to 75% at MAGL.

As to `O=C(ON1C(=O)CCC1=O)N1CCN(Cc2cc(C(F)(F)F)ccc2N2CCOCC2)CC1` [Example 119, 2,5-Dioxopyrrolidin-1-yl 4-{[2-(morpholin-4-yl)-5-(trifluoromethyl)phenyl]methyl}piperazine-1-carboxylate], the inhibition at 1 µM is below 25% on FAAH, 25 to 75% on ABHD6 and 25 to 75% at MAGL.

Regarding `O=C(ON1C(=O)CCC1=O)N1CCN(Cc2cc(C(F)(F)F)ccc2N2CCCC2)CC1` [Example 120, 2,5-Dioxopyrrolidin-1-yl 4-{[2-(pyrrolidin-1-yl)-5-(trifluoromethyl)phenyl]methyl}piperazine-1-carboxylate], the results for the inhibition at 1 µM on FAAH, on ABHD6 and at MAGL were below 25%, 25 to 75% and above 75%, respectively.

On to `O=C(ON1C(=O)CCC1=O)N1CCN(Cc2ccc(Cl)cc2N2CCN3CCC[C@@H]3C2)CC1` [Example 125, 2,5-Dioxopyrrolidin-1-yl 4-({2-[(8aR)-octahydropyrrolo[1,2-a]piperazin-2-yl]-4-chlorophenyl}methyl)piperazine-1-carboxylate], for which the results for the inhibition at 1 µM at FAAH, at ABHD6 and at MAGL were below 25%, above 75% and above 75%, respectively.
